We go through 14 compounds from ChEMBL document CHEMBL5576120, “Discovery and In Vivo Efficacy of AZ-PRMT5i-1, a Novel PRMT5 Inhibitor with High MTA Cooperativity” (J Med Chem, 2024).

For series [1], the target named is Protein arginine N-methyltransferase 5 (Homo sapiens, UniProt O14744).
Description: Inhibition of PRMT5 in human HCT-116 cells with MTAP KO assessed as decrease in SMDA level incubated for 48 hrs by immunofluorescence analysis
A short description of series [2]: physchem. To be noted: buffer, pH 7.4.
Description: Lipophilicity, logD of compound at pH 7.4
In series [3] the target is T1, PRMT5/MEP50 complex (Homo sapiens, UniProt O14744). The experiment in a line: biochemical.
Description: Inhibition of PRMT5 (1 to 637 residues)/MEP504 (2 to 342 residues)(unknown origin) expressed in baculovirus infected Sf21 insect cells using histone H4/SAM as substrate incubated for 5 hrs in presence of MTA by MTase Glo assay
Series [4] is described as follows: Intrinsic clearance in rat hepatocytes assessed per million cells. In kind it is ADME, cell-based, Hepatocyte. To be noted: read-out: CLH.
The target in series [5] is T1, PRMT5/MEP50 complex. In words: biochemical. This is another data set of the same source.
Description: Inhibition of PRMT5 (1 to 637 residues)/MEP504 (2 to 342 residues)(unknown origin) expressed in baculovirus infected Sf21 insect cells using histone H4/SAM as substrate incubated for 5 hrs by MTase Glo assay
A short description of another series: in vitro. The settings on record: human, Caco-2.
The subject of another series is HCT-116. The experiment in a line: Cooperativity fold, ratio of IC50 for PRMT5 in human HCT-116 cells expressing wild-type MTAP assessed as decrease in SMDA level to IC50 for PRMT5 in human HCT-116 cells with MTAP KO assessed as decrease in SMDA level. In kind it is cell-based.
Series [6] in a line: physchem. To be noted: phosphate buffer, pH 7.4.
Series [7] in a line: Intrinsic clearance in human hepatocytes assessed per million cells. The settings on record: read-out: CLH. In kind it is ADME, cell-based, Hepatocyte.
The nature of series [8]: Unbound protein binding in rat plasma by equilibrium dialysis. In kind it is ADME, cell-free. (In equilibrium dialysis only unbound substance equilibrates across the membrane.)
Series [9] can be described thus: Half life in Wistar Han rat at 1 mg/kg, po or 0.5 mg/kg, iv. The settings on record: in vivo. In kind it is ADME, organism-based.
Series [10] is described as follows: Volume of distribution at steady state in Wistar Han rat at 1 mg/kg, po or 0.5 mg/kg, iv. It counts as ADME, organism-based. The settings on record: in vivo.
Series [11] is described as follows: Oral bioavailability at steady state in Wistar Han rat at 1 mg/kg. It counts as ADME, organism-based. The settings on record: in vivo.
Series [12] is described as follows: Oral bioavailability in CD-1 mouse at 1 mg/kg. It counts as ADME, organism-based. To be noted: in vivo.
A short description of series [13]: Volume of distribution at steady state in CD-1 mouse at 1 mg/kg, po or 0.5 mg/kg, iv. In kind it is ADME, organism-based. The settings on record: in vivo.
Series [14] in a line: Half life in CD-1 mouse at 1 mg/kg, po or 0.5 mg/kg, iv. It counts as ADME, organism-based. The settings on record: in vivo.

Values after ≈ are worked out from the molar mass of the structure shown. A value given as a limit tells only on which side of the number the result lay.

Protein arginine N-methyltransferase 5, sequence (O14744 whole entry): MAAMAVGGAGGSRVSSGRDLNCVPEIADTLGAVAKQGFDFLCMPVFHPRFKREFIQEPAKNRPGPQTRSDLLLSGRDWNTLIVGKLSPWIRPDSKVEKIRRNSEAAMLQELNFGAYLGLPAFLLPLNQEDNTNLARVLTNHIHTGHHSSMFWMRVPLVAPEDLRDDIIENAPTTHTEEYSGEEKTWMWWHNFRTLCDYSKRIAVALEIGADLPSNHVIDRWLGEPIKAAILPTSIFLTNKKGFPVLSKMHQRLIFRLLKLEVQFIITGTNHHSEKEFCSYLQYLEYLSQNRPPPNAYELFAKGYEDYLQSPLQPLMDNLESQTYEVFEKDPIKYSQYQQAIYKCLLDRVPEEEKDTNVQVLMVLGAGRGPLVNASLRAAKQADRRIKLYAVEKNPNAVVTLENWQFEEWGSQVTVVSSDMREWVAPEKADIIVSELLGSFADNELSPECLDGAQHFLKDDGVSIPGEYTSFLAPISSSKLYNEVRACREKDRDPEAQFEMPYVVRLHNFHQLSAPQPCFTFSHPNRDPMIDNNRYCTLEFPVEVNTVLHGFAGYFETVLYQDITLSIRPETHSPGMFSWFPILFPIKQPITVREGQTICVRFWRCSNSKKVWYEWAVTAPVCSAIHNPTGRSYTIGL
T1 sequence (O14744 whole entry): as above
T1 sequence (Q9BQA1 whole entry, further chain): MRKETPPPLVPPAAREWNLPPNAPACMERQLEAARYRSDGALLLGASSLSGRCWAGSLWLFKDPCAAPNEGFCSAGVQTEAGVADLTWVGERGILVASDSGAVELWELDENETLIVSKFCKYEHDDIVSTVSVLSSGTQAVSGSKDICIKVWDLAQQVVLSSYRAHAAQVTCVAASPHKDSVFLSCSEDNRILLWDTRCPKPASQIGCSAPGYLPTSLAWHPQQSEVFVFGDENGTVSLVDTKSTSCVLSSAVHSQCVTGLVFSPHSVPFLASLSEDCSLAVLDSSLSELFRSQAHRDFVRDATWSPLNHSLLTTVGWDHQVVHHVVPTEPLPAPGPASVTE
Description for in vitro: Apparent permeability across apical to basal side of human Caco-2 cells at 10 uM

In the case of `O=C1c2cc(F)ccc2[C@]2(CCN(Cc3ccc(F)cc3)C2=O)N1Cc1cc2cnccc2[nH]1`, the IC50 (in general, the midpoint of a concentration-inhibition curve) in series [1] was above 30 µM; against PRMT5/MEP50 complex [3] it was 970 nM. For the same compound, the logD (usually the decadic logarithm of the distribution of all forms, ionised or not, between an organic phase and buffer at a given pH) in the series “physchem [2]” came to 2.4. In addition, the hepatocyte CLint in series [4] is 3 µL/min/1e6 cells.
Turning to `N=C(N)Nc1cc(CN2C(=O)c3ccccc3C2C(=O)NCc2ccc(F)cc2)ccn1` (stereo unspecified), the values for the IC50 (in series [1]; on PRMT5/MEP50 complex [3]; against PRMT5/MEP50 complex [5]) were above 30 µM, 2950 nM and 27 µM, respectively. Besides, the logD in “physchem [2]” was 0.9. Moreover, the hepatocyte CLint in series [4] turned out to be 17 µL/min/1e6 cells.
The compound `O=C1c2cc(F)ccc2[C@]2(CCN(Cc3ccc(F)cc3)C2=O)N1Cc1cc2ncccc2[nH]1` came in with a logD in the series “physchem [2]” of 3.1. Moreover, the hepatocyte CLint in series [4] is 246 µL/min/1e6 cells.
In [1], `COc1cc(N)nc2cc(CN3C(=O)c4cc(F)ccc4[C@]34CCN(Cc3ccc(F)cc3)C4=O)[nH]c12` registered an IC50 of 0.004 µM. Moreover, the Papp A→B (commonly the apparent permeability from the apical to the basolateral side of a cell layer) at 10 µM in the series “in vitro” came out at 1.4 ×10⁻⁶ cm/s. Besides, the Ratio IC50 in the series with HCT-116 worked out at 7.2. For the same compound, in the series “physchem [2]”, the logD was determined as 1.8. Moreover, the hepatocyte CLint in series [4] stood at 7 µL/min/1e6 cells. Also, in “physchem [6]”, the solubility (as a rule, the concentration that dissolves in the medium under given conditions) at 24 h came out at 610 µM (≈ 307 µg/mL).
In turn, `CN(Cc1ccc(F)cc1)C(=O)C1c2ccccc2C(=O)N1Cc1cnc(NC(=N)N)s1` (stereo unspecified) yielded a logD in the series “physchem [2]” of 2. The hepatocyte CLint in [4] stood at 84 µL/min/1e6 cells.
For `N=C(N)Nc1ncc(CN2C(=O)c3cc(F)ccc3C2C(=O)NCc2ccc(F)cc2)s1` (stereo unspecified), in that order: 2.5 and 13 µL/min/1e6 cells.
`Nc1ccc2[nH]c(CN3C(=O)c4cc(F)ccc4[C@]34CCN(Cc3ccc(F)cc3)C4=O)nc2n1` yielded an IC50 in [1] of 1.3 µM. Moreover, the hepatocyte CLint in series [4] was 5 µL/min/1e6 cells; in [7] it was below 1 µL/min/1e6 cells.
Take `O=C1c2cc(F)ccc2[C@]2(CCN(Cc3ccc(F)cc3)C2=O)N1Cc1cc2ccncc2[nH]1`: the IC50 in series [1] was 6.4 µM; against PRMT5/MEP50 complex [3], 370 nM. Also, the Ratio IC50 in the series on HCT-116 was above 5. The logD in “physchem [2]” was 2.8. In addition, the hepatocyte CLint in series [4] was found to be 6 µL/min/1e6 cells.
In “in vitro”, `O=C(NCc1ccc(F)cc1)C1c2ccccc2C(=O)N1Cc1cc2cccnc2[nH]1` (stereo unspecified) had a Papp A→B at 10 µM of 90 ×10⁻⁶ cm/s. Further, in “physchem [2]”, the logD came out at 3.3. Besides, in [4], the hepatocyte CLint came out at 131 µL/min/1e6 cells.
With `N=C(N)Nc1ncc(CN2C(=O)c3ccccc3C2C(=O)NCc2ccc(F)cc2)s1` (stereo unspecified), the unbound share (fraction unbound) (usually the share of the substance not bound to proteins or other matrix) in series [8] was 0.19. Moreover, the half-life (as a rule, how long it takes for the measured level to halve) in [9] was 66 min. In series [10], the Vdss is 1.6 L/kg. Besides, in [11], the bioavailability (commonly the share of a dose that reaches the circulation, judged against a reference dose that is usually intravenous) is 2%. Moreover, the hepatocyte CLint in series [4] turned out to be 34 µL/min/1e6 cells.
`Nc1ccc2[nH]c(CN3C(=O)c4cc(F)ccc4[C@]34CCN(Cc3ccc(F)cc3)C4=O)cc2n1`: the Papp A→B at 10 µM in the series “in vitro” amounted to 2.7 ×10⁻⁶ cm/s. The half-life in series [9] was 30 min; in series [14], 53.4 min. The Vdss was found to be 7.8 L/kg in series [10] and 2.7 L/kg in series [13]. The compound further came in with a bioavailability in [12] of 3%. Also, in the series “physchem [2]”, the logD was found to be 2.2. Moreover, the figures for the hepatocyte CLint in series [4] and in [7] were 13 µL/min/1e6 cells and below 1 µL/min/1e6 cells, respectively. Further, the solubility at 24 h in the series “physchem [6]” was 106 µM (≈ 50.2 µg/mL).
For `O=C1c2cc(F)ccc2[C@]2(CCN(Cc3ccc(F)cc3)C2=O)N1Cc1cc2cccnc2[nH]1`, the Papp A→B at 10 µM in “in vitro” was 29 ×10⁻⁶ cm/s. The compound further returned a logD in “physchem [2]” of 3.4. Moreover, the hepatocyte CLint in [4] came to 193 µL/min/1e6 cells.
On to `O=C1c2cc(F)ccc2[C@@]2(CCN(Cc3ccc(F)cc3)C2=O)N1Cc1cc2cccnc2[nH]1`, for which, in “physchem [2]”, the logD was found to be 3.4. The hepatocyte CLint in [4] came to 188 µL/min/1e6 cells.
In “in vitro”, `Nc1cc(C(F)F)c2[nH]c(CN3C(=O)c4cc(F)ccc4[C@]34CCN(Cc3ccc(F)cc3)C4=O)cc2n1` came in with a Papp A→B at 10 µM of 56 ×10⁻⁶ cm/s. This compound returned a logD in the series “physchem [2]” of 2.9. Besides, the hepatocyte CLint in series [4] was found to be 15 µL/min/1e6 cells. This compound gave a solubility at 24 h in “physchem [6]” of 86 µM (≈ 45 µg/mL).
